Patent US20260209219A1, “SUBSTITUTED TETRAHYDROPYRROLO-PYRIDINONE COMPOUNDS AND THEIR USE IN TREATING MEDICAL CONDITIONS” (Karuna Therapeutics, Inc., priority 2022, published 2026)

Key:
rM4 receptors = biological target: T1, rM4 receptors (Rattus norvegicus, UniProt P08485); assay: Rat M4 PAM pERK assay; format: cell-based; details: CHO cells expressing rM4; with EC20 of acetylcholine (10 nM final)
T1 construct: expressed in transfected cells; host or cells: CHO cells
T1 sequence (P08485 1-478): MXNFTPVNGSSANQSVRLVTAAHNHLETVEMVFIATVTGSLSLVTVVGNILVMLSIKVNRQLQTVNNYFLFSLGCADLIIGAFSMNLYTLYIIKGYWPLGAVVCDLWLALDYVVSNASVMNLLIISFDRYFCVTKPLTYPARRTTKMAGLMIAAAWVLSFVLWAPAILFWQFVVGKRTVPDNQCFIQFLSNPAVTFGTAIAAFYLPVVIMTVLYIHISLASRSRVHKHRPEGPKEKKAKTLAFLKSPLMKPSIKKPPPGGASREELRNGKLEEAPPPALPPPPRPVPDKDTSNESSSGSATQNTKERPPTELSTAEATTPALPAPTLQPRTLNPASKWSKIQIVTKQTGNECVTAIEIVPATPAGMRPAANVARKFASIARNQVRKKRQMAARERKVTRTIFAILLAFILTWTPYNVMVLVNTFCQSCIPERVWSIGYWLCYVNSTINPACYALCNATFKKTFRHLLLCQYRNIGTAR
Procedure: (§1) Chinese hamster ovary (CHO) cells expressing either hM4 or rM4 receptors were frozen in assay ready vials (5×10^6 cells/vial) after bulking-up in culture. The day before an assay, vial(s) were thawed and cells seeded in 384 well white proxiplates at 1000/well for hM4 cells and at 2000/well for rM4 cells, in 10 μL of growth media (Hams/F12 with glutamax and 10% FCS) and incubated overnight at 37° C./5% CO2.
(§2) On the following morning, the growth media was removed by ‘flicking out’ over a bin, patting the inverted plate onto tissue, and then replacing with 10 μL of wash media (Hams/F12 with glutamax and 8 mM HEPES, NB: serum free). Then, the wash media was removed in the same way and replaced with 8 μL/well of the serum free media. Plates were then re-incubated for a further 4 hours at 37° C./5% CO2.
(§3) Compounds for testing were solubilized to 10 mM in DMSO and compound addition plates, consisting of ten-point concentration response curves (CRC) in duplicate points (10 μM top concentration, ½ log dilution series), were prepared by acoustic dispensing and the compound management group.
(§4) After the 4-hour incubation in serum free media, a 4 μL aliquot of the 3× compound solution containing an EC20 of acetylcholine (10 nM final concentration) was added to the cell plate using a 384 well plate to plate transfer. Then, the plate lid was replaced, and the cells incubated for 5 mins at 37° C./5% CO2. Following this final incubation, all cellular processes were stopped by the addition of 4 μL/well of lysis and blocking buffer and plates were incubated for 30 minutes at RT on an orbital shaker (gentle setting). Then, a final addition of 4 μL/well of antibody detection mix, containing both the Europium-Cryptate (donor) and d2 (acceptor) tagged detection components, was added followed by a further 2-hour incubation at RT, and then the plate was read using a TR-FRET (time resolved fluorescence resonance energy transfer) based protocol.

hM4 receptors = biological target: T2, hM4 receptors (Homo sapiens, UniProt P08173); assay: Human M4 PAM pERK assay; format: cell-based; details: CHO cells expressing hM4; with EC20 of acetylcholine (10 nM final)
T2 construct: expressed in transfected cells; host or cells: CHO cells
T2 sequence (P08173 1-479): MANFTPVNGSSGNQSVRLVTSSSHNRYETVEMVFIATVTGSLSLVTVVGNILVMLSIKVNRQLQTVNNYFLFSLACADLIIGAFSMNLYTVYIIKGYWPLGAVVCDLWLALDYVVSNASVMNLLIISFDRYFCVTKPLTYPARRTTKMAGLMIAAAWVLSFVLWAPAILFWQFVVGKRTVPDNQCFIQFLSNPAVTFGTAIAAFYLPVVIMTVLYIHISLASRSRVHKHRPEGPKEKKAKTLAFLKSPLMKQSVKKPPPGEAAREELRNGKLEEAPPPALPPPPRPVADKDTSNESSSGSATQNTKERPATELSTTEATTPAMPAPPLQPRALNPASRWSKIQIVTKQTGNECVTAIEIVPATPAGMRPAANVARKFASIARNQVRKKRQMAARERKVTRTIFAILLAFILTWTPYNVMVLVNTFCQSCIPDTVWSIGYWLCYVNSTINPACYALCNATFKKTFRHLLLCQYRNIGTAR
Procedure: as §1, §2, §3, §4

human M4 receptor = biological target: T3, human M4 receptor (Homo sapiens, UniProt P08173); assay: M4 GTPγS PAM assay; format: biochemical; details: membranes of CHO-K1 cells stably expressing human M4; EC20 acetylcholine 40 nM
T3 construct: expressed in transfected cells; host or cells: CHO-K1 cells (membrane preparation)
T3 sequence (P08173 1-479): T2 sequence (P08173 1-479)
Procedure: The M4 GTPγS PAM method was used. Membranes were prepared for GTPgS binding assays from CHO-K1 cells stably expressing human M4 receptor. Briefly, cells were grown in 5-layer cell culture flasks. Cells were washed with 50 mL of PBS and then dissociated with 0.05% trypsin. Dissociated cells were then collected by centrifugation at 650×g for 8 minutes at 4° C. Pellets were washed again in PBS by centrifugation and resuspended in 30 mL of 20 mM HEPES, 10 mM EDTA, pH 7.4. After sitting on ice for 30 min, membranes were collected by centrifugation at 50000×g for 15′ at 4° C., resuspended in 30 mL of 20 mM HEPES, 0.1 mM EDTA, pH 7.4 and collected again by centrifugation. Pellets were then washed twice by centrifugation in 30 mL of 20 mM HEPES, pH 7.4, and stored at −80° C. until the day of the assay. On the day of the assay, pellets were thawed on ice and resuspended in 1 mL of 20 mM HEPES, pH 7.4, 10 mM MgCl2, 100 mM NaCl using dounce homogenization. Membrane protein concentration is determined by BCA protein assay (Promega, Madison, WI) according to Promega guidelines.
On the day of the assay, serial dilutions of test PAM compounds were brought up in assay buffer (20 mM HEPES, 10 mM MgCl2, 100 mM NaCl) at 4× final assay concentration. […] of membrane homogenates (containing […] of membrane protein) were prepared in assay buffer supplemented with GDP at 4× final assay concentration (final assay concentration of GDP is 5 μM for M2 and 0.1 μM for M4) and dispensed into 96 well polypropylene, U-bottom Greiner plates. […] of vehicle or test PAM compound at 4× of final assay concentration diluted in the assay buffer were added to membrane and plates are incubated for 10-15 minutes at room temperature with gentle shaking. Then, […] of EC20 acetylcholine in assay buffer at 4× final assay concentration was added to assay plates (EC20 final assay concentrations was 40 nM for human M4).
Plates were then incubated, with shaking, for an additional 10-15 minutes. 25 mL of 0.4 nM ^35S-GTP (Perkin Elmer, Waltham, MA) in assay buffer was added to assay mixtures. The binding reaction is left on the shaker for 1 hour at room temperature. Membranes in assay reactions were then transferred to GF/C filter plates (Unifilter, Perkin Elmer) and washed three times using a FilterMate Harvester (Perkin Elmer) with cold assay buffer containing no GDP. Filter plates were then dried at 40° C. overnight followed by the addition of […] of Beta Plate Scintillation liquid. Plates are top and bottom sealed before being read on TopCount scintillation counter (Perkin Elmer, Waltham, MA).

Row | Structure (SMILES) | EC50 (rM4 receptors) [nM] | EC50 (hM4 receptors) [nM] | EC50 (human M4 receptor) [nM]
1 | Cc1c2c(n(C)c(=O)c1F)CN(C(=O)CC1CC1c1cc(F)cc(F)c1)C2 (single isomer, unassigned) [Compound I-27] | < 100 | < 100 | < 100
2 | Cc1c2c(n(C)c(=O)c1Cl)CN(C(=O)CC1CC1c1cc(F)cc(F)c1)C2 (single isomer, unassigned) [Compound I-35] | > 2000 | 500 to 2000 | > 2000
3 | Cc1cc(=O)n(C)c2c1CN(C(=O)CC1CC1c1ccc(C(F)(F)F)nc1)C2 (stereo not drawn) [Compound I-3] | 500 to 2000 | 500 to 2000 | 500 to 2000
4 | Cc1c2c(n(C)c(=O)c1C)CN(C(=O)CC1CC1c1cccc(F)c1F)C2 (stereo not drawn) [Compound I-24] | 100 to 500 | < 100 | < 100
5 | Cc1c2c(n(C)c(=O)c1C)CN(C(=O)CC1CC1c1cc(F)cc(F)c1)C2 (stereo not drawn) [Compound I-21] | 100 to 500 | < 100 | < 100
6 | Cc1c2c(n(C)c(=O)c1Cl)CN(C(=O)CC1CC1c1cc(F)cc(F)c1)C2 (stereo not drawn) [Compound I-34] | < 100 | < 100 | < 100

The next lines start with the values.

Row | EC50 (rM4 receptors) [nM] | EC50 (hM4 receptors) [nM] | EC50 (human M4 receptor) [nM] | Structure (SMILES)
7 | 100 to 500 | 100 to 500 | 100 to 500 | Cc1c2c(n(C)c(=O)c1C)CN(C(=O)C[C@@H]1C[C@H]1c1ccc(C(F)(F)F)cc1)C2 (relative stereo) [Compound I-18, 1,3,4-Trimethyl-6-([trans-2-(2-(4-(trifluoromethyl)phenyl)cyclopropyl)]acetyl)-1,5,6,7-tetrahydro-2H-pyrrolo[3,4-b]pyridin-2-one]
8 | 100 to 500 | 100 to 500 | 100 to 500 | Cc1c2c(n(C)c(=O)c1Cl)CN(C(=O)C[C@@H]1C[C@H]1c1ccc(C(F)(F)F)cc1)C2 (relative stereo) [Compound I-31, 3-Chloro-1,4-dimethyl-6-([trans-2-(2-(4-(trifluoromethyl)phenyl)cyclopropyl)]acetyl)-1,5,6,7-tetrahydro-2H-pyrrolo[3,4-b]pyridin-2-one]
9 | 500 to 2000 | 500 to 2000 | 100 to 500 | Cc1c2c(n(C)c(=O)c1Cl)CN(C(=O)CC1CC1c1ccc(C(F)(F)F)cc1)C2 (single isomer, unassigned) [Compound I-32]
10 | < 100 | < 100 | < 100 | Cc1c2c(n(C)c(=O)c1Cl)CN(C(=O)CC1CC1c1ccc(C(F)(F)F)cc1)C2 (single isomer, unassigned) [Compound I-33]
